Reference: patent US20050250801A1, “Method of treating cancer with azaspirane compositions” (priority 2003, published 2005)
Like-named read-outs stand apart in the source and are kept apart here.

Tests used:
Type in all cases: cell-based
[1] = tested on: NCI-H322M; assay: NCI in vitro SRB assay, Non-Small Cell Lung Cancer; conditions: for GI50 / CC50: Homo sapiens
Procedure: (§1) An in vitro assay which tested the ability of N,N,-diethyl-8,8-dipropyl-2-azaspiro[4,5]decane-2-propanamine dimaleate (Compound 1) to inhibit the growth of known cancer cell lines was performed by the National Cancer Institute in accordance with standard procedures. See: Lin, Z. X., Hoult, J. R., and Raman, A. Sulphorhodamine B assay for measuring proliferation of a pigmented melanocyte cell line and its application to the evaluation of crude drugs used in the treatment of vitiligo. J Ethnopharmacol. 66: 141-150, 1999. Briefly, selected tumor cell lines were cultured in media containing five different concentrations of Compound 1. After 48 hours of continuous exposure, a sulforhodamine B (SRB) assay was used to estimate cell viability or growth via optical measurements.
(§2) From the measurements, the following values were determined: 1) the concentration of Compound 1 at which a tumor cell growth inhibition of 50% (relative to control) occurs (GI50), 2) the concentration of Compound 1 at which no growth occurs (total growth inhibition, TGI), and 3) the concentration of Compound 1 at which the […] (LC 50). […] FIG. 6 illustrates, graphically, tumor cell growth as a function of Compound 1 concentration of the scanned tumor cell lines.

[2] = tested on: EKVX; assay: NCI in vitro SRB assay, Non-Small Cell Lung Cancer; conditions: for GI50: Homo sapiens
Procedure: as §1, §2

[3] = tested on: NCI-H23; assay: NCI in vitro SRB assay, Non-Small Cell Lung Cancer; conditions: for CC50 / GI50: Homo sapiens
Procedure: as §1, §2

[4] = tested on: A549/ATCC; assay: NCI in vitro SRB assay, Non-Small Cell Lung Cancer; conditions: for CC50 / GI50: Homo sapiens
Procedure: as §1, §2

[5] = tested on: HOP-62; assay: NCI in vitro SRB assay, Non-Small Cell Lung Cancer; conditions: for CC50 / GI50: Homo sapiens
Procedure: as §1, §2

[6] = tested on: NCI-H460; assay: NCI in vitro SRB assay, Non-Small Cell Lung Cancer; conditions: for CC50 / GI50: Homo sapiens
Procedure: as §1, §2

[7] = tested on: HOP-92; assay: NCI in vitro SRB assay, Non-Small Cell Lung Cancer; conditions: for CC50 / GI50: Homo sapiens
Procedure: as §1, §2

[8] = tested on: CCRF-CEM; assay: NCI in vitro SRB assay, Leukemia; conditions: for GI50 / CC50: Homo sapiens
Procedure: as §1, §2

[9] = read-out: Log10 GI50 (converted)
[10] = read-out: Log10 LC50 (converted)
[11] = NCI-H23, Log10 conc -4.0 Moles/L
[12] = NCI-H23, Log10 conc -5.0 Moles/L
[13] = NCI-H23, Log10 conc -6.0 Moles/L
[14] = NCI-H23, Log10 conc -7.0 Moles/L
[15] = NCI-H23, Log10 conc -8.0 Moles/L
[16] = A549/ATCC, Log10 conc -4.0 Moles/L
[17] = A549/ATCC, Log10 conc -5.0 Moles/L
[18] = A549/ATCC, Log10 conc -6.0 Moles/L
[19] = A549/ATCC, Log10 conc -7.0 Moles/L
[20] = A549/ATCC, Log10 conc -8.0 Moles/L
[21] = HOP-62, Log10 conc -4.0 Moles/L
[22] = HOP-62, Log10 conc -5.0 Moles/L
[23] = HOP-62, Log10 conc -6.0 Moles/L
[24] = HOP-62, Log10 conc -7.0 Moles/L
[25] = HOP-62, Log10 conc -8.0 Moles/L
[26] = NCI-H460, Log10 conc -4.0 Moles/L
[27] = NCI-H460, Log10 conc -5.0 Moles/L
[28] = NCI-H460, Log10 conc -6.0 Moles/L
[29] = NCI-H460, Log10 conc -7.0 Moles/L
[30] = NCI-H460, Log10 conc -8.0 Moles/L
[31] = HOP-92, Log10 conc -4.0 Moles/L
[32] = HOP-92, Log10 conc -5.0 Moles/L
[33] = HOP-92, Log10 conc -6.0 Moles/L
[34] = HOP-92, Log10 conc -7.0 Moles/L
[35] = HOP-92, Log10 conc -8.0 Moles/L

## CCCC1(CCC)CCC2(CCN(CCCN(CC)CC)C2)CC1.O=C(O)/C=C\C(=O)O.O=C(O)/C=C\C(=O)O [Compound 1, N,N,-diethyl-8,8-dipropyl-2-azaspiro[4,5]decane-2-propanamine dimaleate]
[1]
  Log10 TGI: −5.64
  TGI: 2.29 µM
[1]; read-out: GI50
  GI50: 890 nM
[1]; read-out: LC50
  CC50: 5.41 µM
[1]; [9]
  GI50: 891 nM
[1]; [10]
  CC50: 5.37 µM
[1]; Log10 conc -4.0 Moles/L
  Mean Optical Densities: 0.115
  Percent Growth: −84%
[1]; Log10 conc -5.0 Moles/L
  Mean Optical Densities: 0.100
  Percent Growth: −86%
[1]; Log10 conc -6.0 Moles/L
  Mean Optical Densities: 0.855
  Percent Growth: 48%
[1]; Log10 conc -7.0 Moles/L
  Mean Optical Densities: 0.979
  Percent Growth: 86%
[1]; Log10 conc -8.0 Moles/L
  Mean Optical Densities: 0.991
  Percent Growth: 89%
[2]
  Log10 TGI: −5.39
  TGI: 4.09 µM
[2]; read-out: GI50
  GI50: 2110 nM
[2]; [9]
  GI50: 2090 nM
[2]; Log10 conc -4.0 Moles/L
  Mean Optical Densities: 0.073
  Percent Growth: −88%
[2]; Log10 conc -5.0 Moles/L
  Mean Optical Densities: 0.202
  Percent Growth: −67%
[2]; Log10 conc -6.0 Moles/L
  Mean Optical Densities: 1.321
  Percent Growth: 106%
[2]; Log10 conc -7.0 Moles/L
  Mean Optical Densities: 1.336
  Percent Growth: 108%
[2]; Log10 conc -8.0 Moles/L
  Mean Optical Densities: 1.280
  Percent Growth: 100%
[3]; NCI-H23, read-out: LC50
  CC50: 6.32 µM
[3]; NCI-H23, read-out: Log10 LC50 (converted)
  CC50: 6.31 µM
[3]; NCI-H23, read-out: GI50
  GI50: 1960 nM
[3]; NCI-H23, read-out: Log10 GI50 (converted)
  GI50: 1950 nM
[3]; NCI-H23
  Log10 TGI: −5.45
  TGI: 3.52 µM
[3]; [11]
  Mean Optical Densities: 0.030
  Percent Growth: −92%
[3]; [12]
  Mean Optical Densities: 0.040
  Percent Growth: −89%
[3]; [13]
  Mean Optical Densities: 0.822
  Percent Growth: 107%
[3]; [14]
  Mean Optical Densities: 0.814
  Percent Growth: 105%
[3]; [15]
  Mean Optical Densities: 0.728
  Percent Growth: 85%
[4]; A549/ATCC
  Log10 TGI: −5.48
  TGI: 3.33 µM
[4]; [16]
  Mean Optical Densities: 0.056
  Percent Growth: −78%
[4]; [17]
  Mean Optical Densities: 0.070
  Percent Growth: −73%
[4]; [18]
  Mean Optical Densities: 1.126
  Percent Growth: 80%
[4]; [19]
  Mean Optical Densities: 1.307
  Percent Growth: 96%
[4]; [20]
  Mean Optical Densities: 1.277
  Percent Growth: 94%
[4]; A549, read-out: LC50
  CC50: 7.08 µM
[4]; A549, read-out: Log10 LC50 (converted)
  CC50: 7.08 µM
[4]; A549/ATCC, read-out: GI50
  GI50: 1570 nM
[4]; A549/ATCC, read-out: Log10 GI50 (converted)
  GI50: 1580 nM
[5]; HOP-62
  Log10 TGI: −5.54
  TGI: 2.91 µM
[5]; [21]
  Mean Optical Densities: 0.090
  Percent Growth: −79%
[5]; [22]
  Mean Optical Densities: 0.056
  Percent Growth: −87%
[5]; [23]
  Mean Optical Densities: 0.693
  Percent Growth: 75%
[5]; [24]
  Mean Optical Densities: 0.757
  Percent Growth: 93%
[5]; [25]
  Mean Optical Densities: 0.711
  Percent Growth: 80%
[5]; HOP-62, read-out: LC50
  CC50: 5.93 µM
[5]; HOP-62, read-out: Log10 LC50 (converted)
  CC50: 5.89 µM
[5]; HOP-62, read-out: GI50
  GI50: 1430 nM
[5]; HOP-62, read-out: Log10 GI50 (converted)
  GI50: 1450 nM
[6]; NCI-H460, read-out: LC50
  CC50: 5.08 µM
[6]; NCI-H460, read-out: Log10 LC50 (converted)
  CC50: 5.13 µM
[6]; NCI-H460, read-out: GI50
  GI50: 1310 nM
[6]; NCI-H460, read-out: Log10 GI50 (converted)
  GI50: 1320 nM
[6]; NCI-H460
  Log10 TGI: −5.59
  TGI: 2.58 µM
[6]; [26]
  Mean Optical Densities: 0.015
  Percent Growth: −90%
[6]; [27]
  Mean Optical Densities: −0.001
  Percent Growth: −100%
[6]; [28]
  Mean Optical Densities: 1.075
  Percent Growth: 70%
[6]; [29]
  Mean Optical Densities: 1.278
  Percent Growth: 85%
[6]; [30]
  Mean Optical Densities: 1.403
  Percent Growth: 95%
[7]; HOP-92
  Log10 TGI: −5.41
  TGI: 3.92 µM
[7]; [31]
  Mean Optical Densities: 0.106
  Percent Growth: −87%
[7]; [32]
  Mean Optical Densities: 0.542
  Percent Growth: −33%
[7]; [33]
  Mean Optical Densities: 1.227
  Percent Growth: 49%
[7]; [34]
  Mean Optical Densities: 1.412
  Percent Growth: 71%
[7]; [35]
  Mean Optical Densities: 1.529
  Percent Growth: 85%
[7]; HOP-92, read-out: LC50
  CC50: 20.3 µM
[7]; HOP-92, read-out: Log10 LC50 (converted)
  CC50: 20.4 µM
[7]; HOP-92, read-out: GI50
  GI50: 897 nM
[7]; HOP-92, read-out: Log10 GI50 (converted)
  GI50: 891 nM
[8]
  Log10 TGI: >−4.00
  TGI: >100 µM
[8]; read-out: GI50
  GI50: 1090 nM
[8]; read-out: LC50
  CC50: > 100 µM
[8]; [9]
  GI50: 1100 nM
[8]; [10]
  CC50: > 100 µM
[8]; Log10 conc -4.0 Moles/L
  Mean Optical Densities: 0.115
  Percent Growth: 6%
[8]; Log10 conc -5.0 Moles/L
  Mean Optical Densities: 0.158
  Percent Growth: 13%
[8]; Log10 conc -6.0 Moles/L
  Mean Optical Densities: 0.409
  Percent Growth: 51%
[8]; Log10 conc -7.0 Moles/L
  Mean Optical Densities: 0.597
  Percent Growth: 81%
[8]; Log10 conc -8.0 Moles/L
  Mean Optical Densities: 0.611
  Percent Growth: 83%
